In the first assay the target is T1, PDE2 (Bos taurus, UniProt P14099).
T1 sequence (P14099 1-921): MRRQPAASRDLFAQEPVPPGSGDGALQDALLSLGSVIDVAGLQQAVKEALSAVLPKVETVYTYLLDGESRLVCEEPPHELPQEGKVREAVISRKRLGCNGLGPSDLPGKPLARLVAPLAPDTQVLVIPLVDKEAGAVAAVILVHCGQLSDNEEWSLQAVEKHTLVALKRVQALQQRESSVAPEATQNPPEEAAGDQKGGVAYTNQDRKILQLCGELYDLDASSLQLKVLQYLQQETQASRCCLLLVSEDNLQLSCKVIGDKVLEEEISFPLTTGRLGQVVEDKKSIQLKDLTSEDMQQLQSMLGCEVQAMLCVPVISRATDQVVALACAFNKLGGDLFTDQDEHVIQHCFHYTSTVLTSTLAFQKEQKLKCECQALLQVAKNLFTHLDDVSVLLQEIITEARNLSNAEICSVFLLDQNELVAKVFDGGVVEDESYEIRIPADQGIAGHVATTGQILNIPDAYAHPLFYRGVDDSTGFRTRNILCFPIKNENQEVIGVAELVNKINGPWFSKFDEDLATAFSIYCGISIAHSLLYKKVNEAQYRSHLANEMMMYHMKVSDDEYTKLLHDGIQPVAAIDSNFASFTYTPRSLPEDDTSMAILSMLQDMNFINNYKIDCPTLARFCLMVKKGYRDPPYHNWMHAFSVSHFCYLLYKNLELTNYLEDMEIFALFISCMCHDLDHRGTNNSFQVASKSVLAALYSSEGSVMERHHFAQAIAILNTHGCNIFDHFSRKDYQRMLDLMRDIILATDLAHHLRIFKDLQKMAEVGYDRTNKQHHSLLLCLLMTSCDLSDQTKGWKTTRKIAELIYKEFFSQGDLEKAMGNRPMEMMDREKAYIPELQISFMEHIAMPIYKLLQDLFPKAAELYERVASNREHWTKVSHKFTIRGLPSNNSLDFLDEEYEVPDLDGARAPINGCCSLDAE
Kind of assay: Radioenzymatic phosphodiesterase assay: PDE2 inhibition. Particulars: Table 1; 10 μM test compound. The format is biochemical, bovine. As to the method:
Nucleoside radioactivity was determined by liquid scintillation.
`COc1ccc(-c2ccc3c(c2)C(c2cccc(C(N)=O)c2)=NCC(=O)N3C)c(OC)c1` [Example 33, 3-[7-(2,4-Dimethoxy-phenyl)-1-methyl-2-oxo-2,3-dihydro-1H-benzo[e][1.4]diazepin-5-yl]-benzamide]: the “PDE2 percentage of inhibition at 10 μM” value was determined as 99%. With `COc1cc2c(cc1-c1ccc(C(N)=O)cc1)C(c1cccc(C(N)=O)c1)=NCC(=O)N2` [Example 34, 3-[8-Methoxy-7-(4-benzamide)-2-oxo-2,3-dihydro-1H-benzo[e][1,4]diazepin-5-yl]-benzamide], the “PDE2 percentage of inhibition at 10 μM” value is 98%.

The assay is the same for the next values; noted with them: Table 1; 10 μM test compound; read-out: PDE2 percentage of inhibition at 10 μM.
For `COc1ccc(-c2cc3c(cc2OC)N(C)C(=O)CN=C3c2cccc(C#N)c2)cc1` [Example 4, 3-[8-Methoxy-7-(4-methoxy-phenyl)-1-methyl-2-oxo-2,3-dihydro-1H-benzo[e][1,4]diazepin-5-yl]-benzonitrile], the inhibition – broadly, the share of the control response that was lost under treatment – at 10 µM stood at 97%. Still for that read-out and setting: the same measure for `COc1cc2c(cc1-c1ccccc1Cl)C(c1cccc(C#N)c1)=NCC(=O)N2C` [Example 5, 3-[7-(2-Chloro-phenyl)-8-methoxy-1-methyl-2-oxo-2,3-dihydro-1H-benzo[e][1,4]diazepin-5-yl]-benzonitrile]: 98%.

Regarding `COc1cc2c(cc1-c1ccco1)C(c1cccc(C#N)c1)=NCC(=O)N2C` [Example 8, 3-(7-Furan-2-yl-8-methoxy-1-methyl-2-oxo-2,3-dihydro-1H-benzo[e][1,4]diazepin-5-yl)-benzonitrile], the inhibition at 10 µM came out at 47%. For the compound `CN1C(=O)CN=C(c2cccc(C=O)c2)c2cc(-c3ccccc3)ccc21` [Example 9, 3-(1-Methyl-2-oxo-7-phenyl-2,3-dihydro-1H-benzo[e][1,4]diazepin-5-yl)-benzaldehyde], the inhibition at 10 µM worked out at 84%.

Turning to `COc1ccccc1-c1cc2c(cc1OC)NC(=O)CN=C2c1cccc(C#N)c1` [Example 10, 3-[8-Methoxy-7-(2-methoxy-phenyl)-2-oxo-2,3-dihydro-1H-benzo[e][1,4]diazepin-5-yl]-benzonitrile], the inhibition at 10 µM came out at 94%. On to `COc1ccccc1-c1ccc2c(c1)C(c1cccc(C#N)c1)=NCC(=O)N2C` [Example 12, 3-[7-(2-Methoxy-phenyl)-1-methyl-2-oxo-2,3-dihydro-1H-benzo[e][1,4]diazepin-5-yl]-benzonitrile], for which the inhibition at 10 µM was found to be 40%. On the same count and under the same terms, with `COc1cccc(-c2ccc3c(c2)C(c2cccc(C#N)c2)=NCC(=O)N3C)c1` [Example 13, 3-[7-(3-Methoxy-phenyl)-1-methyl-2-oxo-2,3-dihydro-1H-benzo[e][1,4]diazepin-5-yl]-benzonitrile] the figure was 91%; with `COc1ccc(-c2ccc3c(c2)C(c2cccc(C#N)c2)=NCC(=O)N3C)cc1` [Example 14, 3-[7-(4-Methoxy-phenyl)-1-methyl-2-oxo-2,3-dihydro-1H-benzo[e][1,4]diazepin-5-yl]-benzonitrile], 92%.

Take `COc1cccc(OC)c1-c1ccc2c(c1)C(c1cccc(C#N)c1)=NCC(=O)N2C` [Example 16, 3-[7-(2,6-Dimethoxy-phenyl)-1-methyl-2-oxo-2,3-dihydro-1H-benzo[e][1,4]diazepin-5-yl]-benzonitrile]: the inhibition at 10 µM came to 100%.

Turning to `CCOc1cc2c(cc1-c1ccccc1)C(c1ccccc1)=NCC(=O)N2CC` [Example 18, 8-Ethoxy-1-ethyl-5,7-diphenyl-1,3-dihydro-benzo[e][1,4]diazepin-2-one], the inhibition at 10 µM stood at 27%.

With `COc1cc2c(cc1-c1ccc(F)cc1)C(c1cccc(C(N)=O)c1)=NCC(=O)N2C` [Example 20, 3-[7-(4-Fluoro-phenyl)-8-methoxy-1-methyl-2-oxo-2,3-dihydro-1H-benzo[e][1,4]diazepin-5-yl]-benzamide], the inhibition at 10 µM is 99%. The same measure, in the same setting: with `COc1cc2c(cc1-c1cccc(Cl)c1)C(c1cccc(C(N)=O)c1)=NCC(=O)N2C` [Example 24, 3-[7-(3-Chloro-phenyl)-8-methoxy-1-methyl-2-oxo-2,3-dihydro-1H-benzo[e][1,4]diazepin-5-yl]-benzamide] the figure was 98%. In the case of `COc1cc2c(cc1-c1ccc(Cl)cc1)C(c1cccc(C(N)=O)c1)=NCC(=O)N2C` [Example 25, 3-[7-(4-Chloro-phenyl)-8-methoxy-1-methyl-2-oxo-2,3-dihydro-1H-benzo[e][1,4]diazepin-5-yl]-benzamide], the inhibition at 10 µM was found to be 97%.

For the compound `COc1cc2c(cc1-c1ccco1)C(c1cccc(C(N)=O)c1)=NCC(=O)N2C` [Example 26, 3-(7-Furan-2-yl-8-methoxy-1-methyl-2-oxo-2,3-dihydro-1H-benzo[e][1,4]diazepin-5-yl)-benzamide], the inhibition at 10 µM was 71%.

On to `COc1ccccc1-c1ccc2c(c1)C(c1cccc(C(N)=O)c1)=NCC(=O)N2C` [Example 28, 3-[7-(2-methoxy-phenyl)-1-methyl-2-oxo-2,3-dihydro-1H-benzo[e][1,4]diazepin-5-yl]-benzamide], for which the inhibition at 10 µM was determined as 97%.

Take `COc1cccc(-c2ccc3c(c2)C(c2cccc(C(N)=O)c2)=NCC(=O)N3C)c1` [Example 29, 3-[7-(3-methoxy-phenyl)-1-methyl-2-oxo-2,3-dihydro-1H-benzo[e][1,4]diazepin-5-yl]-benzamide]: the inhibition at 10 µM was determined as 95%. Still for that read-out and setting: the same measure for `COc1ccc(-c2ccc3c(c2)C(c2cccc(C(N)=O)c2)=NCC(=O)N3C)cc1` [Example 30, 3-[7-(4-methoxy-phenyl)-1-methyl-2-oxo-2,3-dihydro-1H-benzo[e][1,4]diazepin-5-yl]-benzamide]: 95%; for `COc1ccccc1-c1cc2c(cc1OC)NC(=O)CN=C2c1cccc(C(N)=O)c1` [Example 36, 3-[8-Methoxy-7-(2-methoxy-phenyl)-2-oxo-2,3-dihydro-1H-benzo[e][1,4]diazepin-5-yl]-benzamide]: 94%.

Staying with this assay, now noted: read-out: PDE2 percentage of inhibition at 10 μM.
Regarding `COc1cc2c(cc1-c1ccccc1)C(c1cccc(C#N)c1)=NCC(=O)N2C` [Example 1, 3-(8-Methoxy-1-methyl-2-oxo-7-phenyl-2,3-dihydro-1H-benzo[e][1,4]diazepin-5-yl)-benzonitrile], the inhibition at 10 µM was 83%. The same measure, in the same setting: the same measure for `COc1cc2c(cc1-c1ccc(F)cc1)C(c1cccc(C#N)c1)=NCC(=O)N2C` [Example 2, 3-[7-(4-Fluoro-phenyl)-8-methoxy-1-methyl-2-oxo-2,3-dihydro-1H-benzo[e][1,4]diazepin-5-yl]-benzonitrile]: 97%; for `COc1ccccc1-c1cc2c(cc1OC)N(C)C(=O)CN=C2c1cccc(C#N)c1` [Example 3, 3-[8-Methoxy-7-(2-methoxy-phenyl)-1-methyl-2-oxo-2,3-dihydro-1H-benzo[e][1,4]diazepin-5-yl]-benzonitrile]: 100%; for `COc1cc2c(cc1-c1cccc(Cl)c1)C(c1cccc(C#N)c1)=NCC(=O)N2C` [Example 6, 3-[7-(3-Chloro-phenyl)-8-methoxy-1-methyl-2-oxo-2,3-dihydro-1H-benzo[e][1,4]diazepin-5-yl]-benzonitrile]: 96%. Still for that read-out and setting: with `COc1cc2c(cc1-c1ccc(Cl)cc1)C(c1cccc(C#N)c1)=NCC(=O)N2C` [Example 7, 3-[7-(4-Chloro-phenyl)-8-methoxy-1-methyl-2-oxo-2,3-dihydro-1H-benzo[e][1,4]diazepin-5-yl]-benzonitrile] the figure was 91%. Take `CN1C(=O)CN=C(c2cccc(C#N)c2)c2cc(-c3ccccc3)ccc21` [Example 11, 3-(1-Methyl-2-oxo-7-phenyl-2,3-dihydro-1H-benzo[e][1,4]diazepin-5-yl)-benzonitrile]: the inhibition at 10 µM came to 79%. On to `COc1ccc(OC)c(-c2ccc3c(c2)C(c2cccc(C#N)c2)=NCC(=O)N3C)c1` [Example 15, 3-[7-(2,5-Dimethoxy-phenyl)-1-methyl-2-oxo-2,3-dihydro-1H-benzo[e][1,4]diazepin-5-yl]-benzonitrile], for which the inhibition at 10 µM amounted to 98%. `COc1ccc(-c2ccc3c(c2)C(c2cccc(C#N)c2)=NCC(=O)N3C)c(OC)c1` [Example 17, 3-[7-(2,4-Dimethoxy-phenyl)-1-methyl-2-oxo-2,3-dihydro-1H-benzo[e][1,4]diazepin-5-yl]-benzonitrile]: the inhibition at 10 µM was found to be 98%. On the same count and under the same terms, the same measure for `CN1C(=O)CN=C(c2cccc(C(N)=O)c2)c2cc(-c3ccccc3)ccc21` [Example 27, 3-(1-methyl-2-oxo-7-phenyl-2,3-dihydro-1H-benzo[e][1,4]diazepin-5-yl)-benzamide]: 96%; for `CCCCCCN1C(=O)CN=C(c2cccc(C#N)c2)c2cc(-c3ccccc3OC)c(OC)cc21` [Example 35, 3-[1-Hexyl-8-methoxy-7-(2-methoxy-phenyl)-2-oxo-2,3-dihydro-1H-benzo[e][1,4]diazepin-5-yl]-benzonitrile]: 39%.
